Patent US20050182242A1, “Global analysis of protein activities using proteome chips” (priority 2001, published 2005)

What was measured:
[1] = test system: phosphatidylcholine (PC) liposomes; test: Yeast proteome chip probed with PC liposomes; conditions: liposome binding signal on yeast proteome chip, Cy3-streptavidin detection
Excerpt: (§1) To identify PI-binding proteins in yeast, liposomes were used as probes because the liposome provides the most relevant physiological condition to assay the interactors. Six types of liposomes were used. Each contains phosphatidylcholine (“PC”) with 1% (w/w) N-(biotinoyl)-1,2-dihexadecanoyl-sn-glycero-3-phosphoethanolamine, triethylammonium salt (biotin DHPE). The biotinylated lipid serves as a label that can be detected by Cy3-streptavidin (21). In addition to PC, the five other liposomes contain either 5% (w/w) PI(3)P, PI(4)P, PI(3,4)P2, PI(4,5)P2, or PI(3,4,5)P3 (FIG. 3A).
(§2) The protein-liposome interaction was assayed as follows. Appropriate amounts of each lipid in chloroform were mixed and dried under nitrogen. The lipid mixture was resuspended in TBS buffer by vortexing. The liposomes were created by sonication. Blocked proteome chips were washed three to five times in PBS buffer, and the extra liquid on the glass surface was removed by tapping the slides vertically on a KIMWIPE™. 200 μl of liposome solution was added to the proteome chip and immediately covered by a hydrophobic plastic cover slip (GRACE BIO-LAB™, USA). After trapped air bubbles were removed, the chip was incubated in a humidity chamber at RT for one hour. To remove the cover slip, the chip was immersed into large volume of PBS buffer (50 ml), so that the slip would float away. The chip was then moved to a second PBS bath (>50 ml) and washed 3×5 min with shaking at RT. After removing extra liquid on the surface of the chip, about 100 μl of Cy3 or Cy5 conjugated streptavidin (PIERCE™, USA; 1:2000 to 1:4000 dilution) was added to the surface and covered by a hydrophobic plastic cover slip (GRACE BIO-LABS™, USA). The chip was incubated for greater than 30 min in the dark at RT. The chip was then washed as described above. To completely remove the liquid on the chip, the chip was spun to dryness at 1500-2000 rpm for 5-10 min at RT.
(§3) • 1. S. Fields, Y. Kohara, D. J. Lockhart, Proc. Natl. Acad. Sci. 96, 8825 (1999); A. Goffeau et al., Science 274, 563 (1996). • 2 P. Ross-Macdonald et al., Nature 402, 413 (1999); J. L., DeRisi, V. R. Iyer, P. O. Brown, Science 278, 680 (1997); E. A. Winzeler et al., Science 285, 901 (1999). P. Uetz et al., Nature 403, 623 (2000); T. Ito et al., Proc. Natl. Acad. Sci. USA. 97, 1143 (2000) • 3 H. Zhu, M. Snyder, Curr. Opin. Chem. Biol. 5, 40 (2001). • 4 M. R. Martzen et al., Science 286, 1153 (1999). • 5 H. Zhu et al., Nat. Genet. 26, 283 (2000). • 6 G. MacBeath, S. L. Schreiber, Science 289, 1760 (2000). • 7 A. Caveman, J. Cell Sci. 113, 3543 (2000). • 8 P. Arenkov et al., Anal. Biochem 278, 123 (2000). • 9 D. A. Mitchell, T. K. Marshall, R. J. Deschenes, Yeast 9, 715 (1993). The expression vector pEGH was created by inserting an RGS-HisX6 epitope tag between the GST gene and the polycloning site of pEG(KG). The yeast ORFs were cloned using the strategy described previously (5), except every step was done in a 96-well format. Plasmid DNAs confirmed by DNA sequencing were reintroduced into both yeast (Y258) and E. coli (DH5a). […] 0.1 mM calcium was present in buffers in all subsequent steps. The chip was washed three times with PBS at RT. Cy3-conjugated streptavidin (Jackson IR, USA) (1:5000 dilution) was added to the chip and incubated for 30 min at RT. After extensive washing, the chip was spun dry and scanned using a microarray scanner; the data was subsequently acquired with the GENEPIX™ array densitometry software (Axon, USA). • 12 S. S. Hook, A. R. Means, Annu. Rev. […]

[2] = test system: PI(4)P liposomes; test: Yeast proteome chip probed with PI(4)P liposomes; conditions: liposome binding signal on yeast proteome chip, Cy3-streptavidin detection
Excerpt: as §1, §2, §3

In the case of “RIM15: yeast protein kinase, regulator of glucose metabolism, GST-HisX6 fusion”, the PC [1] is reported as 244.76 and the “PI(4)P” value [2] is reported as 2349.00.
